Where a name gives a salt, the structure may show the parent alone.
Columns and labels:
Bcl-2 protein = Bcl-2 protein (histag-Bcl-2, UniProtKB P10415) (Homo sapiens (Human), UniProt P10415); assay: Inhibition of Bcl-2 by the fluorescence polarisation technique; format: binding; settings: fluorescence polarisation test; method A, or method B where underlined (underlining not visible); read-out: IC50 (nM) Bcl-2 FP
Excerpt: Inhibition of Bcl-2 by the fluorescence polarisation technique

[1] = test system: RS4;11 leukaemia tumour line; assay: In vitro cytotoxicity, Microculture Tetrazolium Assay (MTT); format: cell-based; settings: Homo sapiens; RS4;11 cells, 48 hours exposure
Procedure: The cytotoxicity studies were carried out on the RS4;11 leukaemia tumour line.
The cells are distributed onto microplates and exposed to the test compounds for 48 hours. The cell viability is then quantified by a colorimetric assay, the Microculture Tetrazolium Assay (Cancer Res., 1987, 47, 939-942).

Sequence of Bcl-2 protein (P10415 whole entry): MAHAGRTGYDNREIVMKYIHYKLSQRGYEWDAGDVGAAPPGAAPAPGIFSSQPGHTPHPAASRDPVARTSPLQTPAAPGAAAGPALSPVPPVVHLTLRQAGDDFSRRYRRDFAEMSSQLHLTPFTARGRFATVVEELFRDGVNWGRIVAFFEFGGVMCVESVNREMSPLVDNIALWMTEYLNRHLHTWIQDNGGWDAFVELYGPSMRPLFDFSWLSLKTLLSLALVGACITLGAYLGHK

Row | SMILES | IC50 (Bcl-2 protein) | IC50 [1]
1 | Cc1cc(C(=O)N(c2ccccc2)c2ccc(O)cc2)cn1-c1cc(O)ccc1C(=O)N1Cc2ccccc2C[C@H]1CN1CCN(C)CC1 [Example 17, 1-(5-Hydroxy-2-{[(3S)-3-[(4-methylpiperazin-1-yl)methyl]-3,4-dihydroisoquinolin-2(1H)-yl]carbonyl}phenyl)-N-(4-hydroxyphenyl)-5-methyl-N-phenyl-1H-pyrrole-3-carboxamide] | 11.4 nM | 1010 nM
2 | COc1cc(-n2cc(C(=O)N(c3ccccc3)C3CCCCC3)c3ccccc32)c(C(=O)N2Cc3ccccc3C[C@H]2CN2CCN(C)CC2)cc1O [Example 187, N-Cyclohexyl-1-{4-hydroxy-5-methoxy-2-[(3S)-3-[(4-methylpiperazin-1-yl)methyl]-1,2,3,4-tetrahydroisoquinoline-2-carbonyl}phenyl]-N-phenyl-1H-indole-3-carboxamide dihydrochloride] | 21.6 nM | 1990 nM
3 | Cc1ccc(N(C(=O)c2cn(-c3cc(Br)ccc3C(=O)N3Cc4ccccc4C[C@H]3CN3CCN(C)CC3)c3ccccc23)c2ccc(O)cc2)cc1 [Example 57, 1-(5-Bromo-2-{[(3S)-3-[(4-methylpiperazin-1-yl)methyl]-3,4-dihydroisoquinolin-2(1H)-yl]carbonyl}phenyl)-N-(4-hydroxyphenyl)-N-(4-methylphenyl)-1H-indole-3-carboxamide] | 13.4 nM | 267 nM
4 | Cc1cc(C(=O)N(c2ccc(O)cc2)c2ccc3c(ccn3C)c2)cn1-c1cc(Cl)ccc1C(=O)N1Cc2ccccc2C[C@H]1CN1CCN(C)CC1 [Example 89, 1-(5-Chloro-2-{[(3S)-3-[(4-methylpiperazin-1-yl)methyl]-3,4-dihydroisoquinolin-2(1H)-yl]carbonyl}phenyl)-N-(4-hydroxyphenyl)-5-methyl-N-(1-methyl-1H-indol-5-yl)-1H-pyrrole-3-carboxamide] | 4.2 nM | 59.8 nM
5 | Cc1ccc(N(C(=O)c2cc(C)n(-c3cc4c(cc3C(=O)N3Cc5ccccc5C[C@H]3CN3CCOCC3)OCO4)c2)c2ccc(O)cc2)cc1 [Example 106, N-(4-Hydroxyphenyl)-5-methyl-N-(4-methylphenyl)-1-(6-{[(3S)-3-(morpholin-4-ylmethyl)-3,4-dihydroisoquinolin-2(1H)-yl]carbonyl}-1,3-benzodioxol-5-yl)-1H-pyrrole-3-carboxamide hydrochloride] | 19.6 nM | 521 nM
6 | Cc1cc(C(=O)N(c2ccccc2)c2ccc(O)cc2)cn1-c1cc(O)ccc1C(=O)N1Cc2ccccc2C[C@H]1CN1CCOCC1 [Example 15, 1-(5-Hydroxy-2-{[(3S)-3-(morpholin-4-ylmethyl)-3,4-dihydroisoquinolin-2(1H)-yl]carbonyl}phenyl)-N-(4-hydroxyphenyl)-5-methyl-N-phenyl-1H-pyrrole-3-carboxamide] | 22.1 nM | 759 nM
7 | Cc1ccc(N(C(=O)c2cn(-c3cc4c(cc3C(=O)N3Cc5ccccc5C[C@H]3CN3CCN(C)CC3)OCO4)c3ccccc23)c2ccc3[nH]ccc3c2)cc1 [Example 55, N-(1H-Indol-5-yl)-N-(4-methylphenyl)-1-(6-{[(3S)-3-[(4-methylpiperazin-1-yl)methyl]-3,4-dihydroisoquinolin-2(1H)-yl]carbonyl}-1,3-benzodioxol-5-yl)-1H-indole-3-carboxamide] | 57.2 nM | 1020 nM
8 | Cc1cc(C(=O)N(c2ccccc2)c2ccc(O)cc2)cn1-c1ccc(Br)cc1C(=O)N1Cc2ccccc2C[C@H]1CN1CCN(C)CC1 [Example 29, 1-(4-Bromo-2-{[(3S)-3-[(4-methylpiperazin-1-yl)methyl]-3,4-dihydroisoquinolin-2(1H)-yl]carbonyl}phenyl)-N-(4-hydroxyphenyl)-5-methyl-N-phenyl-1H-pyrrole-3-carboxamide] | 44.6 nM | 1010 nM
9 | Cc1cc(C(=O)N(c2ccc(O)cc2)c2ccc3c(ccn3C)c2)cn1-c1cc2c(cc1C(=O)N1Cc3ccccc3C[C@H]1CN1CCOCC1)CCC2 [Example 117, N-(4-Hydroxyphenyl)-5-methyl-N-(1-methyl-1H-indol-5-yl)-1-(6-{[(3S)-3-(morpholin-4-ylmethyl)-3,4-dihydroisoquinolin-2(1H)-yl]carbonyl}-2,3-dihydro-1H-inden-5-yl)-1H-pyrrole-3-carboxamide hydrochloride] | 7.6 nM | 193 nM
10 | O=C(c1cn(-c2ccccc2C(=O)N2Cc3ccccc3C[C@H]2CN2CCCCC2)c2ccccc12)N(c1ccccc1)c1ccc(O)cc1 [Example 173, N-(4-Hydroxyphenyl)-N-phenyl-1-{2-[(3S)-3-(piperidin-1-ylmethyl)-1,2,3,4-tetrahydroisoquinoline-2-carbonyl]phenyl}-1H-indole-3-carboxamide] | 168 nM | 2040 nM
11 | Cc1c(C(=O)N(c2ccc(O)cc2)c2cnc3c(ccn3C)c2)cn(-c2cc(Cl)ccc2C(=O)N2Cc3ccccc3C[C@H]2CN2CCOCC2)c1C [Example 209, 1-(5-Chloro-2-{[(3S)-3-(morpholin-4-ylmethyl)-3,4-dihydroisoquinolin-2(1H)-yl]carbonyl}phenyl)-N-(4-hydroxyphenyl)-4,5-dimethyl-N-(1-methyl-1H-pyrrolo[2,3-b]pyridin-5-yl)-1H-pyrrole-3-carboxamide hydrochloride] | 4.1 nM | 62.9 nM
12 | CN(C)C[C@@H]1Cc2ccccc2CN1C(=O)c1ccc(Cl)cc1-n1cc(C(=O)N(c2ccccc2)c2ccc(O)cc2)c2ccccc21 [Example 179, 1-{5-Chloro-2-[(3S)-3-[(dimethylamino)methyl]-1,2,3,4-tetrahydroisoquinoline-2-carbonyl]phenyl}-N-(4-hydroxyphenyl)-N-phenyl-1H-indole-3-carboxamide hydrochloride] | 18.1 nM | 886 nM
13 | Cc1cc(C(=O)N(c2ccc(O)cc2)c2ccc3c(ccn3C)c2)cn1-c1cc2c(cc1C(=O)N1Cc3ccccc3C[C@H]1CN1CCCC1)OCO2 [Example 105, N-(4-Hydroxyphenyl)-5-methyl-N-(1-methyl-1H-indol-5-yl)-1-(6-{[(3S)-3-(pyrrolidin-1-ylmethyl)-3,4-dihydroisoquinolin-2(1H)-yl]carbonyl}-1,3-benzodioxol-5-yl)-1H-pyrrole-3-carboxamide hydrochloride] | 13.6 nM | 202 nM
14 | COc1ccc(C(=O)N2Cc3ccccc3C[C@H]2CN2CCN(C)CC2)c(-n2cc(C(=O)N(c3ccccc3)c3ccc(O)cc3)c3ccccc32)c1 [Example 168, N-(4-Hydroxyphenyl)-1-{5-methoxy-2-[(3S)-3-[(4-methylpiperazin-1-yl)methyl]-1,2,3,4-tetrahydroisoquinoline-2-carbonyl]phenyl}-N-phenyl-1H-indole-3-carboxamide dihydrochloride] | 11.4 nM | 188 nM
15 | COc1cc(-n2cc(C(=O)N(c3ccccc3)c3ccc(O)cc3)c3ccccc32)c(C(=O)N2Cc3ccccc3C[C@H]2CN)cc1O [Example 145, 1-{2-[(3S)-3-(Aminomethyl)-1,2,3,4-tetrahydroisoquinoline-2-carbonyl]-4-hydroxy-5-methoxyphenyl}-N-(4-hydroxyphenyl)-N-phenyl-1H-indole-3-carboxamide] | 12.2 nM | 1180 nM
16 | CN1CCN(C[C@@H]2Cc3ccccc3CN2C(=O)c2cc3c(cc2-n2cc(C(=O)N(c4ccc(O)cc4)c4ccc5c(ccn5C)c4)c4ccccc42)OCO3)CC1 [Example 45, N-(4-Hydroxyphenyl)-N-(1-methyl-1H-indol-5-yl)-1-(6-{[(3S)-3-[(4-methylpiperazin-1-yl)methyl]-3,4-dihydroisoquinolin-2(1H)-yl]carbonyl}-1,3-benzodioxol-5-yl)-1H-indole-3-carboxamide] | 6.7 nM | 36.5 nM
17 | CC(C)CC1Oc2cc(C(=O)N3Cc4ccccc4C[C@H]3CN)c(-n3cc(C(=O)N(c4ccccc4)c4ccc(O)cc4)c4ccccc43)cc2O1 (stereo partly drawn) [Example 158, 1-{6-[(3S)-3-(Aminomethyl)-1,2,3,4-tetrahydroisoquinoline-2-carbonyl]-2-(2-methylpropyl)-2H-1,3-benzodioxol-5-yl}-N-(4-hydroxyphenyl)-N-phenyl-1H-indole-3-carboxamide] | 54.1 nM | 834 nM
18 | Cc1cc(C(=O)N(c2ccc(O)cc2)c2ccc3[nH]ccc3c2)cn1-c1cc(Br)ccc1C(=O)N1Cc2ccccc2C[C@H]1CN1CCCC1 [Example 104, 1-(5-Bromo-2-{[(3S)-3-(pyrrolidin-1-ylmethyl)-3,4-dihydroisoquinolin-2(1H)-yl]carbonyl}phenyl)-N-(4-hydroxyphenyl)-N-(1H-indol-5-yl)-5-methyl-1H-pyrrole-3-carboxamide] | 18.8 nM | 383 nM
19 | Cc1cc(C(=O)N(c2ccccc2)c2ccc(O)cc2)cn1-c1cc(Br)ccc1C(=O)N1Cc2ccccc2C[C@H]1CN1C[C@H]2CCC[C@H]2C1 [Example 38, 1-(5-Bromo-2-{[(3S)-3-[(3aR,6aS)-hexahydrocyclopenta[c]pyrrol-2(1H)-ylmethyl]-3,4-dihydroisoquinolin-2(1H)-yl]carbonyl}phenyl)-N-(4-hydroxyphenyl)-5-methyl-N-phenyl-1H-pyrrole-3-carboxamide] | 238 nM | 1780 nM
20 | Cc1cc(C(=O)N(c2ccc(O)cc2)c2ccc3c(c2)CN(C)C3)cn1-c1cc2c(cc1C(=O)N1Cc3ccccc3C[C@H]1C)OCO2 [Example 114, N-(4-Hydroxyphenyl)-5-methyl-N-(2-methyl-2,3-dihydro-1H-isoindol-5-yl)-1-(6-{[(3R)-3-methyl-3,4-dihydroisoquinolin-2(1H)-yl]carbonyl}-1,3-benzodioxol-5-yl)-1H-pyrrole-3-carboxamide hydrochloride] | 23.7 nM | 726 nM
